Experiment: Luciferase Assay: The Huh-7 cells transfected with HCV replicons system were seeded into 96-well plates (8,000 cells in 125 μL/well) respectively; each test compound was diluted to desired concentration using 5-fold serial dilutions protocol, 10 doses in duplicate, and added to wells with POD™ 810 Plate Assembler. […] In this paper, experiments were repeated twice and set the holes without compounds as negative control.

| Structure (SMILES) | EC50 [nM] | EC50 (Huh-7) [nM] |
| --- | --- | --- |
| COC(=O)N[C@H](C(=O)N1CCC[C@H]1c1ncc(-c2ccc(-c3ccc(-c4ccc5nc([C@@H]6CCCN6C(=O)[C@@H](NC(=O)OC)C(C)C)[nH]c(=O)c5c4)c4c3CC3(CCCC3)C4)cc2)[nH]1)C(C)C | 0.087 | – |
| COC(=O)N[C@H](C(=O)N1C[C@@H](C)C[C@H]1[n+]1c[nH]c(-c2ccc(-c3ccc(-c4ccc5nc([C@@H]6C[C@H](C)CN6C(=O)[C@@H](NC(=O)OC)C(C)C)[nH]c(=O)c5c4)c4c3CC3(CCCC3)C4)cc2)c1)C(C)C | – | 0.006 |
